Assay results reported in EP1136472A1, “ARYL- AND HETEROARYLAMIDES OF CARBOALKOXYSULFANILIC ACIDS” (priority 1998, dated 2000).
Converted amounts (≈) assume the structure as drawn.

What was measured:
[1] = test system: Human's platelet aggregation; experiment: Antiaggregational properties, ADP-induced platelet aggregation in platelet-rich plasma; type: cell-based; details: adenosine diphosphate 2.5 µmol/l
Description: Human's platelet aggregation was investigated in plasma of healthy 50±3 years donors that was enriched by thrombocytes, by means of aggregometer FRM-1. The substance under investigation was added to blood plasma samples (100 µg/ml) before inducing aggregation by means of adenosine diphosphate (2.5 µmol/l). Magnitude of the maximum non-reversible platelet aggregation in the control samples (solvent) was adopted as 100%, and that in tested samples was counted as percentage compared to the control. Inhibition of the aggregation by more than 50% at the given concentration was evaluated as meaningful inhibition. Adenosine (5 µg/ml) and aspirin (9 µg/ml), that inhibit aggregation at these concentrations by 100%, were utilized as reference agents.

C.trachomatis D323 = experiment: Antichlamydial activity in infected cell culture (McCoy and L929); type: cell-based, Chlamydia trachomatis; details: 100 mg/l
Description: The antichlamydial activity of the claimed compounds was studied in respect to C.trachomatis […], which is a standard strain contained in the collection of the department of microbiology of St. Petersburg State Pavlov Medical University. […] Cell cultures McCoy and L929 obtained from the Institute of Cytology of RAS were used in this work. Cells were grown in flasks made of neutral glass in the medium RPMI-1640 containing 10% of fetal calf serum. The test was performed in flat-bottom flasks made of glass (non-toxic), that were supplied with cover glasses. The cells were introduced into the medium in the final concentration of 1x10^6 cell/ml. […] Simultaneously, tested compounds in a final concentration of 100 mg/l were added to the cells. The sample was centrifuged at 2400 G for 60 minutes at a room temperature and incubated at 37°C for 2 hours. […] The samples were doubled using the medium without cycloheximide so as to exclude its effect on the investigated compounds. The samples were incubated for 48 hours in CO2-incubator. The controls included: • 1. Control of cell culture • 2. Control of action of solvents • 3. Control of action of chlamydia in absence of any compounds • 4. […] Control of the tested compounds as to toxicity in respect to the cell culture. Evaluation of the results was carried out by the way of determination of chlamydial cytoplasmatic inclusions (CPI) that was conducted by the method of immunofluorescence (MicroTrack Chlamydia trachomatis Direct Specimen Test), and by the way of determination of chlamydia antigens that was conducted by means of CylaMonoScreen (Russian-British Joint Venture 66 Regent's Parc Road London NW1 7SX). The effect of the action of compound was determined by analysis of the monolayer state and number of cells with CPI when compared with the control (cell culture infected with C.trachomatis […]); in doing so, the number of unchanged cells, that were counted in 100 visual fields obtained using the eyepiece-micrometer, was taken into consideration.

[2] = test system: alanine-aminotranspherase (AlAT); experiment: Hepatoprotective activity, CCl4 liver damage in rats; type: in vivo
Description: CCl4 dissolved in 50% olive oil (1 ml/kg) was subcutaneously administrated to rats. Test substances were administrated perorally in a dose of 20 mg/kg 30 minutes before and 7 hours after the CCL4 administration. The activity of alanine-aminotranspherase (AlAT), which is a marker enzyme of liver parenchyma damage, was assessed twenty-four hours later. Reducing of enzyme amount by more than 30% relative to the control group was considered as evidence of hepatoprotective properties of the substance. Vitamin E in a dose of 100 mg/kg was used as a reference agent.

[3] = test system: Herpes Simplex virus of the type I (HSV-I /Leningrad/248/88); experiment: Antiviral effect on Herpes Simplex virus (cytopathogenic action on Vero cells); type: cell-based; details: compound concentration of 100 µg/ml; for Quantity of the unchanged cells: number of cells in 100 visual fields, after 36 hours; for percentage of protection: protection of cells from virus as compared to the control of cell culture
[4] = type: in vivo; details: mice, observed 72 hours, 300 was the maximally utilized
Description: Tested substance was introduced perorally (in dose of 300 mg/kg) through a gastric tube or intraperitoneally (in dose of 100 mg/kg) to no-breed white mice with mass 18-20 g (each tested group consisted of 3 males and 3 females). Then the mouse state was observed during 72 hours. Absence of symptoms characteristic of toxic effects, or absence of animal death during the given time allows to make a conclusion that the toxicity of the tested substance is low.

[5] = test system: Mycobacterium tuberculosis H37RV; experiment: Antimicrobial action, serial dilution method; type: cell-based; details: Mycobacterium tuberculosis, H37RV; 72-hour cultivation at 37°C; read-out: MIC

## CC(=O)Oc1ccccc1C(=O)O [Aspirin, aspirin]
[1]; Homo sapiens, Platelet, 9 µg/ml
  inhibition at 9 µg/mL: 100%

## CCCCCCOC(=O)Nc1ccc(S(=O)(=O)Nc2ccccc2C)cc1 [XXIX, Carbohexoxysulfanylic acid (2-toluyl)amide]
C.trachomatis D323
  activity against chlamydia (in words): marked biological activity against chlamydia
C.trachomatis D323; 48 hours
  percentage of cell protection from infection: 55%
C.trachomatis D323; counted in 100 visual fields, 48 hours
  Number of unchanged cells: 4.400
[2]; perorally 20 mg/kg 30 minutes before and 7 hours after CCl4, AlAT twenty-four hours later, relative to the control group
  % of reducing AlAT: -36%
[3]
  Quantity of the unchanged cells: 6000
  percentage of protection: 60%
[1]; 100 µg/ml
  % of inhibition: 33.3±8.2%

## CCCCOC(=O)Nc1ccc(S(=O)(=O)Nc2ccc([N+](=O)[O-])cc2)cc1 [VII, Carbobutoxysulfanylic acid (4-nitrophenyl)amide]
[4]
  Maximal tolerable dose: Concentration of tested compounds at oral introducing: 300 mg/L
[3]
  Quantity of the unchanged cells: 8000
  percentage of protection: 80%

## Nc1ncnc2c1ncn2[C@@H]1O[C@H](CO)[C@@H](O)[C@H]1O [Adenosine]
[1]; Homo sapiens, Platelet, 5 µg/ml
  inhibition at 5 µg/mL: 100%

## Vitamin E [reference compound]
[2]; Vitamin E in a dose of 100 mg/kg, reference agent
  % of reducing AlAT: -30%

## CC[C@@H](CO)NCCN[C@@H](CC)CO [Ethambutol]
[5]
  MIC: 5 µg/mL (≈ 24.5 µM)
